From BindingDB's records for doi:10.1021/jm960331f (Oregon State University, 1996)

Test: determined in L-pipecolate oxidase from Rehsus monkey

O=C(O)[C@@H]1CCCCN1 [(S)-pipecolate]
Ki: 130 µM
